Reference: the supplement of paper PMC10307832

Legend:
Assay in all cases: relative viability (nuclei count vs DMSO), 5 days (fraction); higher = more cells survive
[1] = compound: C1CC2=C(C1)C=C(C=C2)OC3=NC(=C4C(=N3)N(C=N4)CC5=CC=C(C=C5)C6=CC=CC=C6)N[C@@H](CC7=CC=CC=C7)CO [QS11] + Cc1nc(Nc2ncc(C(=O)Nc3c(C)cccc3Cl)s2)cc(N2CCN(CCO)CC2)n1 [Dasatinib] (partner 0.075 µM)
Method in brief: (§1)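 A single step with final 0.05% Triton X-100, 1% formaldehyde and 1 ug/ml Hoechst fixed the cells and stained nuclei 5 days after treatment. Lung cancer cell lines in 1536-well plates had been treated by pin tool the day after seeding with one drug alone or a fixed anchor-drug dose plus five library-drug doses (not always all listed) in √10 steps, and nuclei were counted on 4× images. Relative viability is the ratio of nuclei in treated wells to nuclei in vehicle wells, taken as the median of duplicate plates.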

[2] = compound: CC1=C(C=C(C=C1)NC(=O)C2=CC(=CC=C2)C(C)(C)C#N)NC3=CC4=C(C=C3)N=CN(C4=O)C [AZ628] + COc1cccc2cc(-c3nc([C@H]4CC[C@H](C(=O)O)CC4)n4ncnc(N)c34)[nH]c12 [OSI-027] (partner 0.5 µM)
Method in brief: as §1

[3] = compound: CC1=C(C=C(C=C1)NC(=O)C2=CC(=CC=C2)C(C)(C)C#N)NC3=CC4=C(C=C3)N=CN(C4=O)C [AZ628] + NC(=O)Nc1cc(-c2cccc(F)c2)sc1C(=O)N[C@H]1CCCNC1 [AZD7762] (partner 0.2 µM)
Method in brief: as §1

[4] = compound: C1CC2=C(C1)C=C(C=C2)OC3=NC(=C4C(=N3)N(C=N4)CC5=CC=C(C=C5)C6=CC=CC=C6)N[C@@H](CC7=CC=CC=C7)CO [QS11] + CC(=O)c1c(C)c2cnc(Nc3ccc(N4CCNCC4)cn3)nc2n(C2CCCC2)c1=O [Palbociclib] (partner 0.5 µM)
Method in brief: as §1

Cell Line	relative viability ([1]; first compound 0.08 µM)	relative viability ([1]; first compound 0.253 µM)	relative viability ([1]; first compound 0.8 µM)	relative viability ([1]; first compound 2.53 µM)	relative viability ([1]; first compound 8 µM)	relative viability ([2]; first compound 0.08 µM)	relative viability ([2]; first compound 0.253 µM)	relative viability ([2]; first compound 0.8 µM)	relative viability ([2]; first compound 2.53 µM)	relative viability ([2]; first compound 8 µM)	relative viability ([3]; first compound 0.08 µM)	relative viability ([3]; first compound 0.253 µM)	relative viability ([3]; first compound 0.8 µM)	relative viability ([3]; first compound 2.53 µM)	relative viability ([3]; first compound 8 µM)	relative viability ([4]; first compound 0.08 µM)	relative viability ([4]; first compound 0.253 µM)	relative viability ([4]; first compound 0.8 µM)	relative viability ([4]; first compound 2.53 µM)	relative viability ([4]; first compound 8 µM)
NCI-H647	0.164	0.219	0.216	0.184	0.205	0.666	0.722	0.495	0.537	0.462	0.485	0.417	0.456	0.488	0.397	0.412	0.367	0.394	0.325	0.394
NCI-H1651	0.486	0.306	0.333	0.495	0.291	0.577	0.703	0.649	0.579	0.659	0.466	0.393	0.44	0.448	0.318	0.542	0.53	0.4	0.48	0.581
NCI-H838	0.271	0.312	0.357	0.27	0.276	0.487	0.413	0.303	0.325	0.354	0.957	0.884	0.915	0.95	0.922	0.213	0.187	0.191	0.223	0.213
NCI-H661	0.794	0.804	0.891	0.798	0.711	0.631	0.617	0.513	0.593	0.47						0.379	0.374	0.332	0.402	0.34
NCI-H1734	0.449	0.509	0.504	0.481	0.597	0.604	0.565	0.512	0.46	0.293	0.504	0.56	0.561	0.473	0.373	0.374	0.389	0.31	0.32	0.324
HCC-827	0.244	0.26	0.386	0.305	0.328	0.741	0.82	0.796	0.703	0.418	0.258	0.177	0.17	0.217	0.166	0.527	0.501	0.445	0.599	0.479
HCC-44						0.453	0.441	0.493	0.374	0.365	1.01	0.945	1.08	1.04	1.24	1.07	0.998	0.732	0.901	0.866
SK-MES-1	0.374	0.307	0.425	0.326	0.297	0.599	0.593	0.653	0.572	0.297						0.322	0.285	0.268	0.311	0.295
NCI-H1563	0.448	0.417	0.44	0.409	0.426	0.787	0.726	0.718	0.788	0.792										
NCI-H1648						0.254	0.276	0.253	0.255	0.244	0.871	0.579	0.524	0.494	0.587	0.279	0.265	0.331	0.294	0.294
NCI-H2023	0.634	0.475	0.555	0.572	0.618	0.369	0.374	0.329	0.309	0.234						0.42	0.397	0.302	0.36	0.29
NCI-H520	0.186	0.254	0.191	0.208	0.167	0.262	0.21	0.206	0.203	0.232						0.211	0.208	0.268	0.208	0.204
NCI-H596	0.591	0.586	0.584	0.611	0.586	0.715	0.67	0.818	0.721	0.528	1.11	1.08	1.02	1.17	0.915					
NCI-H2009	0.277	0.295	0.261	0.209	0.229	0.537	0.452	0.287	0.327	0.243						0.203	0.233	0.209	0.181	0.17
COR-L23	0.505	0.59	0.552	0.358	0.355	0.678	0.669	0.602	0.558	0.302						0.319	0.298	0.274	0.196	0.181
NCI-H1703											0.118	0.124	0.134	0.139	0.0724					
SW 1573	0.537	0.635	0.545	0.393	0.329	0.669	0.555	0.359	0.362	0.26						0.388	0.35	0.339	0.223	0.161
NCI-H1623	0.502	0.567	0.66	0.544	0.641	0.452	0.388	0.245	0.36	0.225										
NCI-H1650	0.288	0.27	0.329	0.308	0.284	0.642	0.793	0.666	0.557	0.458						0.354	0.251	0.271	0.355	0.245
COR-L 105	0.281	0.267	0.334	0.423	0.331	0.751	0.837	0.795	0.763	0.46						0.423	0.437	0.417	0.352	0.442
